Reference: paper PMC10974242, “Killing of Plasmodium Sporozoites by Basic Amphipathic α-Helical Fusion Peptides” (Microorganisms, 2024)
Several values for one entry are separate records, joined by “and”; a condition that tells them apart may be missing. Equal entries are not always repeated. No end group written: not given here. *: point of attachment. FITC = O=C1OC2(c3ccc(O)cc3Oc3cc(O)ccc32)c2ccc(NC(=S)*)cc21

Experiments:
[1] = system: P. gallinaceum sporozoites; settings: 250 µM; cited from earlier work
Procedure: Many natural antimicrobial peptides (AMPs), such as magainin, cecropin, and defensins, can kill oocysts from different plasmodial species when injected or over-expressed in the insect hemolymph. However, avian-infecting P. gallinaceum sporozoites are resistant to incubation with 250 µM of the AMPs metalnikowin, thanatin, drosocin, and metchnikowin. […] Yet, despite rendering mosquitoes susceptible to Gram-positive bacterial challenge, the k ...

[2] = system: P. falciparum (Pf) salivary gland sporozoites; experiment: Sporozoite cytotoxicity assay (PI uptake), with or without cytochalasin D; assay type: cell-based; settings: 45 min, 37 °C; for killing of Pf sporozoites (in words): 20 µM peptide, PBS 10% FCS
Procedure: (§1) To assess the cytotoxic effect of the different peptides on sporozoites, we performed an in vitro assay as previously described. Briefly, sporozoites were incubated at 37 °C for 45 min with different peptides in the presence of 10% fetal calf serum (FCS). Samples were next, incubated for 10 min with 5 µg/mL propidium iodide (PI, Invitrogen, WA, USA) on ice and either imaged in an inverted Axio Observer Z.1 microscope (Zeiss, Oberkochen, Germany) and analyzed using Fiji or diluted 10 times with cold PBS before acquisition on a CytoFLEX S flow cytometer (Beckman Coulter, Brea, CA, USA). For the Pf cytotoxic assay, a final concentration of 0.5 µM cytochalasin D (Sigma-Aldrich) was used in some conditions. Viability was defined as the percentage of GFP+PI- sporozoites to the sum of GFP+PI-, GFP+PI+, and GFP-PI+ sporozoites. Data were analyzed using the CytExpert 2.0 software (Beckman Coulter).
(§2) To evaluate the killing of plasmodial sporozoites by membrane-active molecules, we tested the activity of cationic amphipathic α-helical peptides listed in Figure 1 on P. berghei (Pb), P. yoelii (Py), and P. falciparum (Pf) salivary gland sporozoites in vitro. Quantification of sporozoite death was measured by flow cytometry based on the uptake of propidium iodide (PI), a live cell impermeant nucleic acid fluorescent dye, and/or by the loss of parasite fluorescence following 45 min incubation at 37 °C in PBS 10% fetal calf serum (FCS).

[3] = system: CD4+ T cells susceptible to HIV infection; settings: cited from earlier work
Excerpt: (§3) We next tested the killing activity of a series of cationic amphipathic peptides consisting of penetratin (Figure 1, RK16), a cell-penetrating peptide (CPP) derived from the Drosophila melanogaster homeotic protein antennapedia a-helix 3 [25], fused with peptides derived from the a-helix 18 of the antiapoptosis clone 11 (AAC11) also known as Apoptosis Inhibitor 5 protein [26] (Figure 1, RL37, RT39, and RT53).

cancer cells = settings: cited from earlier work
Excerpt: as §3

[4] = system: P. berghei (Pb) salivary gland sporozoites; assay type: cell-based, P. berghei ANKA; settings: for killing of GFP-expressing Pb sporozoites (in words): 3-9 independent experiments
Procedure: as §1, §2

[5] = system: P. berghei (Pb) salivary gland sporozoites; assay type: cell-based, P. berghei ANKA; settings: 20 µM peptide, 37 °C, flow cytometry, n = 2
Pb sporozoites = experiment: Dynamic microscopy and gliding motility assay of sporozoites; assay type: cell-based, P. berghei ANKA
Procedure: To visualize the killing of the sporozoites by the peptide, Pb sporozoites expressing mCherry were incubated with 20 μM of RT39 and RT39-FITC. First, 5000 sporozoites were activated in 10% FCS/PBS on an 18-well slide (iBidi, Gräfelfing, Germany). After 5 min, the peptide was added with 1 μM of To-Pro 3 and the sporozoites were immediately recorded for 15–30 min using a spinning-disk confocal system (UltraView ERS, PerkinElmer, Shelton, CT, USA) controlled by Volocity (PerkinElmer), composed of 4 Diode Pumped Solid State Lasers, a Yokogawa Confocal Scanner Unit CSU22, a z-axis piezoelectric actuator, and a Hamamatsu Orca-Flash 4.0 camera mounted on a Axiovert 200 microscope (Zeiss). Time-lapses were analyzed using Fiji.
To assess gliding motility, 5000 sporozoites were resuspended in 10% FCS/PBS in a final volume of 10 µL. The resulting suspension was transferred to an 18-well slide (iBidi) and centrifuged at 400× g for 3 min at 4 °C. The slide was then allowed to equilibrate at 37 °C, 5% CO2 for 3 min in the incubation chamber (Incubation System S, Zeiss) of an inverted epifluorescence wide-field microscope (AxioObserver Z.1, Zeiss) equipped with a LED illumination system (Colibri2, Zeiss), a CCD camera (AxioCam MR, Zeiss), and controlled by the AxioVision software (version 4.8.2.0, Zeiss). After 3 min, a time-lapse movie at a rate of one image per second was recorded for 2 min to control for initial parasite motility. After the 2 min recording, 10 µL of PBS or 20 µM of RT39 were added on top, and the parasites were immediately imaged for 20 min. The average sporozoite velocity at different time points was determined using the MTrack2 plug-in from Fiji.
RT39 induced a fast killing of Pb sporozoites in comparison with anti-CSP antibody as measured by flow cytometry. While 20 µM of the cytotoxic peptide killed most parasites before 5 min of incubation, 10 µg/mL of cytotoxic antibody needed more than 20 min to eliminate the majority of sporozoites (Figure 3A). To better understand the way RT39 is acting on Pb sporozoites, we dynamically imaged the cytotoxic effect of the peptide on fluorescent sporozoites in the presence of To-Pro 3, a live-cell impermeant far-red fluorescent nucleic acid dye. Given its fast-killing kinetics, RT39 was added to a microscopy chamber containing PBS 10% FCS and sporozoites, which were immediately recorded for 20 min at 37 °C. In the presence of FCS, most sporozoites move in a circular way in a substrate-dependent manner. Sporozoite death was assessed by the incorporation of To-Pro 3 and/or by the loss of cytoplasmic fluorescence. Following the addition of RT39 to sporozoites, a lag phase of around 5 min was observed, probably corresponding to the diffusion and peptide binding to sporozoites, after which parasites started to die in quick succession (Figure 3B).

P. knowlesi oocysts = settings: in vivo, at concentrations that start to be toxic to mosquitoes; cited from earlier work
[6] = system: Escherichia coli DH5α (Ec); experiment: E. coli viability, CFU quantification after incubation with cecropin B; assay type: cell-based; settings: 2 µM cecropin B, 10 min, 37 °C, 10% FCS/PBS, CFU normalised to control; 3-4 independent experiments
Procedure: Escherichia coli DH5α (Ec) were grown at 37 °C under agitation in LB medium at an OD620 of approximately 0.35 (corresponding to 10^8 CFU/mL). After centrifugation and washing with PBS, the equivalent of 10^7 colony-forming units (CFUs)/mL were incubated at 37 °C for 10 min with or without Cecropin B (Sigma-Aldrich) in 10%FCS/PBS at concentrations ranging from 2 to 100 μM. The suspensions of bacteria were diluted 1000× in PBS and 50 µL were spread on LB-agar plates for CFU quantification. Viability was assessed by normalizing the number of CFU to the control group. A sample of E. coli heated at 70 °C for 10 min was used as a death control.
Cecropin B is a prototypical antimicrobial peptide (AMP, Figure 1) discovered in the hemolymph of the Cecropia moth. […] Since our sporozoite killing assay contains 10% FCS, which can inhibit the antimicrobial activity of several AMPs, we first tested the antimicrobial activity of cecropin B in the presence of 10% FCS.

P. cynomolgi oocysts = settings: in vivo, at concentrations that start to be toxic to mosquitoes; cited from earlier work
[7] = system: P. yoelii (Py) salivary gland sporozoites; experiment: Sporozoite cytotoxicity assay (PI uptake / loss of fluorescence); assay type: cell-based, P. yoelii 17XNL; settings: 100 µM, 45 min incubation, 10% FCS/PBS; 3-4 independent experiments
Procedure: as §1, with “Viability was defined as the percentage of GFP+PI- sporozoites to the sum of GFP+PI-, GFP+PI+, and GFP-PI+ sporozoites.” left out
as §2

Pf oocysts = settings: in vivo, at concentrations that start to be toxic to mosquitoes; cited from earlier work
human cells = settings: cited from earlier work
Excerpt: Conversely, RT53, which combines the sequences of two basic amphipathic helical peptides (Figure 1B), one capable of translocating into cells and the other containing a heptad leucine repeat domain, which acts as a protein–protein interaction domain [32, 39], was able to kill Pb and Pf sporozoites.

[8] = 20 µM peptide, 45 min, 37 °C, 10% FCS/PBS, flow cytometry

For thanatin, the “susceptibility of P. gallinaceum sporozoites to incubation” value [1] is listed as “resistant”.

For “RQIKIWFQNRRMKWKKLQYFARGLQVYIRQLRLALQGGKT [RT39, penetratin fused with shorter AAC11 a-helix 18 peptide]”, the “lethality to Pf sporozoites compared with cytotoxic anti-CSP antibody” value ([2]; 20 µM peptide vs cytotoxic anti-CSP antibody) is listed as “as lethal as or more than”, the “killing of Pf sporozoites (in words)” value [2] is listed as “stronger killing activity than RT53” and the “cell death of CD4+ T cells susceptible to HIV infection” value [3] is listed as “elicit the cell death”. The “cell death of cancer cells” value (cancer cells) was “elicit the cell death”, the “lethality to Pb sporozoites compared with cytotoxic anti-CSP antibody” value ([4]; 20 µM peptide vs 10 µg/mL anti-PbCSP (3D11), 45 min, 37 °C) was “as lethal as or more than” and the “incubation time at which most Pb sporozoites are killed” value [5] was < 5 min and 5 min. The “time of sudden stop in motility with To-Pro 3 entry and mCherry leakage” value (Pb sporozoites; 20 µM RT39, exemplified dying sporozoite) was ~ 450 s, the “effect on sporozoite motility (speed) before permeabilization” value (Pb sporozoites; 20 µM RT39, two-minute analysis of speed at end of lag phase or beginning of death plateau, 2-3 independent experiments) was “did not significantly impact sporozoite motility” and the “lag phase before parasites start to die” value (Pb sporozoites; 20 µM RT39 added to sporozoites in PBS 10% FCS, 37 °C, recorded 20 min, microscopy) was “around 5 min”.

For “cecropin B: cationic amphipathic antimicrobial insect peptide from Hyalophora cecropia, purchased from Sigma-Aldrich (KWKVFKKIEKMGRNIRNGIVKAGPAIAVLGEAKAL; ends and bridges not checked; UniProt P01508 27-61, looked up)”, the “development of P. knowlesi oocysts” value (P. knowlesi oocysts) is listed as “inhibit the development”, the “killing of E. coli” value [6] is listed as “efficiently kill” and the “development of P. cynomolgi oocysts” value (P. cynomolgi oocysts) is listed as “inhibit the development”. The “killing of Pb sporozoites” value ([4]; 100 µM, 45 min incubation, 10% FCS/PBS, 3-4 independent experiments) was “did not significantly kill”, the “killing of Py sporozoites” value [7] was “did not significantly kill” and the “development of Pf oocysts” value (Pf oocysts) was “inhibit the development”.

With “RQIKIWFQNRRMKWKK [RK16, cell-penetrating peptide derived from the Drosophila melanogaster homeotic protein antennapedia a-helix 3, reference compound]” the “killing of GFP-expressing Pb sporozoites (in words)” value [4, 8] was “did not significantly kill”.

For drosocin, the “susceptibility of P. gallinaceum sporozoites to incubation” value [1] is given as “resistant”.

In the case of “RQIKIWFQNRRMKWKKLQYFAAGLQVYIRQLRLALQGGKT [RT39M]”, the “Pb sporozoite death compared with RT39” value ([4]; 2, 10, 40, 80 μM, 45 min, 37 °C, flow cytometry, n = 3) is reported as “strongly decreased”.

In the case of “RQIKIWFQNRRMKWKKKDFKIRLQYFARGLQVYIRQL [RL37, penetratin fused with a peptide derived from the a-helix 18 of AAC11]”, the “killing of GFP-expressing Pb sporozoites (in words)” value [4, 8] is reported as “did not significantly kill”.

For “{FITC}-RQIKIWFQNRRMKWKKLQYFARGLQVYIRQLRLALQGGKT [RT39-FITC, FITC-labeled RT39]”, the “Ratio MFI SPZ/Bk of live parasites” value (Pb sporozoites; 20 µM RT39-FITC in solution, spinning-disk microscopy, 1 μM To-Pro 3, 10% FCS/PBS) was ~ 1 and the “site of membrane permeabilization on the sporozoite body” value (Pb sporozoites; 20 μM RT39-FITC, 1 μM To-Pro 3, n = 34 sporozoites from 2 independent experiments) was “frequently occurred at the posterior part of the sporozoite body”.

In the case of “RQIKIWFQNRRMKWKKAKLNAEKLKDFKIRLQYFARGLQVYIRQLRLALQGKT [RT53]”, the “killing of Pf sporozoites (in words)” value [2] is given as “able to kill”, the “cell death of CD4+ T cells susceptible to HIV infection” value [3] is given as “elicit the cell death” and the “cell death of cancer cells” value (cancer cells) is given as “elicit the cell death”. For the same substance, the Pb sporozoites killed [4, 8] was “around 50%”, the “killing of GFP-expressing Pb sporozoites (in words)” value [4, 8] was “able to kill” and the “incubation time at which membrane permeabilization plateaus” value (human cells) was 60 min. The “membrane permeabilization activity compared with RT39” value (human cells) was “equivalent or higher”.

For metchnikowin, the “susceptibility of P. gallinaceum sporozoites to incubation” value [1] is given as “resistant”.
